Patent US20230070338A1, “SHP2 Inhibitor Dosing and Methods of Treating Cancer” (Revolution Medicines, Inc., priority 2020, published 2023)

What was measured:
[1] = tested on: ERK phosphorylation (pERK); assay: Pharmacodynamic effect on ERK activation in patients (blood cells, tumor biopsies); assay type: in vivo, human
From the text: FIG. 7A is a graph depicting the H-Score for nuclear and cytoplasmic ERK phosphorylation in cells obtained from each of four patients following treatment with RMC-4630 on a daily dosing schedule provided in FIG. 7C. H score is the product of percentage of tumor cells staining positive for pERK and the intensity of staining per cell. Both nuclear and cytoplasmic pERK are shown.
Pharmacodynamic effects of RMC-4630, comparison of daily and intermittent schedules. Activation of the protein ERK, which is an important protein in the RAS signaling pathway and a substrate for MEK, is a good surrogate for the inhibition of pathway activity by a SHP2 inhibitor. The pharmacodynamic effects of RMC-4630 on activation of ERK were studied in the blood cells of patients being treated with RMC-4630. […] These effects are consistent with engagement and inhibition of the SHP2 target and downstream RAS signaling by RMC-4630.
Phosphorylation of ERK has been assessed in tumor before, and while receiving, RMC-4630 (FIG. 7).

[2] = tested on: KRASG12C tumor cell lines; assay: Induction of apoptosis in vitro; assay type: cell-based
[3] = tested on: NCI-H358 KRASG12C xenograft model; assay: NCI-H358 KRASG12C xenograft model, anti-tumor activity and exposure; assay type: in vivo
[4] = RMC-4630-01 phase 1 study: safety and tolerability

Cc1nc(N2CCC3(CC2)CO[C@@H](C)[C@H]3N)c(CO)nc1Sc1ccnc(N)c1Cl [RMC-4630]
activated ERK in peripheral blood cells ([1]; all dose levels tested): trend in favor of inhibition
tumor pERK, before versus on treatment ([1]; one patient, no drug for eight days prior to second biopsy, little pre-treatment phosphorylation): no reduction
phosphorylation of ERK in tumor, before versus on treatment ([1]; three cases, drug at steady state, daily dosing): reduction in phosphorylation of cytoplasmic and nuclear ERK
induction of apoptosis in vitro [2]: both concentration and time-dependent
plasma exposure relative to the EC75 ([3]; 10 mg/kg daily): did not exceed the EC75
anti-tumor effect ([3]; 10 mg/kg daily (no regressions)): tumor growth inhibition
anti-tumor effect ([3]; 30 mg/kg daily): Tumor regressions
time plasma exposures exceeded the EC75 ([3]; 30 mg/kg daily): 4 to 6 h
QTc, single reading in one patient (SAE, causality considered absent or unlikely by Sponsor) ([4]; 60 mg daily, no dose for three days, history of prolonged QTc, ondansetron): grade 3 prolongation of QTc
safety/tolerability of schedule ([4]; D1, D2 schedule): improved safety/tolerability
maximum tolerated dose ([4]; D1, D4 schedule): 140 mg
deaths (grade 5 AEs) ascribed to drug ([4]; daily administration): No deaths
maximum tolerated dose (putative MTD) ([4]; daily schedule): 60 mg
patients with increase in alanine transaminase attributed to drug, all grades ([4]; daily schedule): 10%
patients with increase in aspartate transaminase attributed to drug, all grades ([4]; daily schedule): 16%
pneumonitis ([4]; daily schedule): no reports
recommended phase 2 dose ([4]; daily schedule): ~60 mg
toxicities consistent with off-target effects ([4]; daily schedule): No toxicities
AEs with daily dosing compared with intermittent schedule ([4]; daily schedule, 49 patients): more frequent and severe AEs than the intermittent schedule
patients with toxicities involving the lungs or respiratory system attributed in part to drug ([4]; daily schedule, eight patients): 16%
serious adverse events possibly or probably related to study drug ([4]; daily schedule, three events): 6%
patients with grade 3 or grade 4 increase in alanine transaminase or aspartate transaminase ([4]; daily schedule, two patients): 4%
related grade 4 or grade 5 AEs ([4]; intermittent D1, D4 schedule, 14 patients): No related grade 4 or grade 5 AEs
related SAE reported (grade 3 abdominal distension) ([4]; intermittent schedule, patient with pancreatic cancer, 200 mg twice weekly): One
systemic activation of the immune system ([4]; treated subjects): little evidence
